Reference: ChEMBL document CHEMBL1151069 (Bioorg Med Chem Lett, 1996)
Positions of bridges follow the written chain, without caps; N, C: chain ends. Residues, ends and D or L forms follow the SMILES beside them.

Tests used:
Endothelin-1 receptor = target: T1, Endothelin-1 receptor (Bos taurus, UniProt P21450); test: Binding activity against Endothelin A receptor expressed from bovine lung membrane preparation; format: tissue-based
T1 sequence (P21450 whole entry): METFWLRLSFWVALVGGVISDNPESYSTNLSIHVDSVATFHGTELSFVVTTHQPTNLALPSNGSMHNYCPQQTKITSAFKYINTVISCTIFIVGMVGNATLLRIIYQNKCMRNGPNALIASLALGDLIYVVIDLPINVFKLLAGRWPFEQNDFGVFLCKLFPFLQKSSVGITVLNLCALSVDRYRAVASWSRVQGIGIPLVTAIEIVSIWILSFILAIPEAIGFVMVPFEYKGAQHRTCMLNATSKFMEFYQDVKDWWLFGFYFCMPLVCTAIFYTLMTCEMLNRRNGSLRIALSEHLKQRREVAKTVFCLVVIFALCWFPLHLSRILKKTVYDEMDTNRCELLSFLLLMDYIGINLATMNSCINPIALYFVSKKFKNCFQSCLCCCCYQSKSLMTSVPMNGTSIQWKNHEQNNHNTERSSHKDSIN

[1] = target: T2, Endothelin receptor type B (Bos taurus, UniProt P28088); test: Binding activity against Endothelin B receptor expressed from bovine cerebellum membrane preparation; format: tissue-based
T2 sequence (P28088 whole entry): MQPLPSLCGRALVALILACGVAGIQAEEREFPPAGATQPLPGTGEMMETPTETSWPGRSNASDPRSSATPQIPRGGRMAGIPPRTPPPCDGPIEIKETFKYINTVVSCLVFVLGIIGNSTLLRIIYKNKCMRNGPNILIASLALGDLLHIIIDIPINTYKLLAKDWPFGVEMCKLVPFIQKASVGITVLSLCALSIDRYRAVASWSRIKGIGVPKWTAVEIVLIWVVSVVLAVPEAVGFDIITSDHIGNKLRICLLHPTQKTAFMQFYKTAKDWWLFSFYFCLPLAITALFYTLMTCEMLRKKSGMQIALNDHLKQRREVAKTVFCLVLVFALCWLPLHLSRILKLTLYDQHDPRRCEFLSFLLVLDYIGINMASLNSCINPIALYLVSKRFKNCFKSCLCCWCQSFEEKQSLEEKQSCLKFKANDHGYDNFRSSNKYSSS

Row | SMILES | IC50 (Endothelin-1 receptor) [µM] | IC50 [1] [µM]
1 | C[C@@H]1NC(=O)[C@@H]([C@@H](C)O)NC(=O)CNC(=O)[C@@H](Cc2c[nH]cn2)NC(=O)[C@H](Cc2c[nH]c3ccccc23)NC(=O)[C@@H](CC(N)=O)NC(=O)CNC(=O)C[C@H](C(=O)N[C@@H](Cc2c[nH]c3ccccc23)C(=O)N[C@@H](Cc2ccccc2)C(=O)N[C@@H](Cc2ccccc2)C(=O)N[C@@H](CC(N)=O)C(=O)N[C@@H](Cc2ccc(O)cc2)C(=O)N[C@H](Cc2ccc(O)cc2)C(=O)N[C@@H](Cc2c[nH]c3ccccc23)C(=O)O)NC(=O)[C@H]2CCCN2C1=O | > 0.098 | 
2 | C[C@@H]1NC(=O)[C@@H]([C@@H](C)O)NC(=O)CNC(=O)[C@@H](Cc2cnc[nH]2)NC(=O)[C@H](Cc2c[nH]c3ccccc23)NC(=O)[C@@H](CC(N)=O)NC(=O)CNC(=O)C[C@H](C(=O)N[C@@H](Cc2c[nH]c3ccccc23)C(=O)N[C@@H](Cc2ccccc2)C(=O)N[C@@H](Cc2ccccc2)C(=O)N[C@@H](CC(N)=O)C(=O)N[C@@H](Cc2ccc(O)cc2)C(=O)N[C@@H](Cc2ccc(O)cc2)C(=O)N[C@@H](Cc2c[nH]c3ccccc23)C(=O)O)NC(=O)[C@H]2CCCN2C1=O | > 0.098 | 
3 | C[C@@H]1NC(=O)[C@H]([C@@H](C)O)NC(=O)CNC(=O)[C@H](Cc2c[nH]cn2)NC(=O)[C@H](Cc2c[nH]c3ccccc23)NC(=O)[C@H](CC(N)=O)NC(=O)CNC(=O)C[C@@H](C(=O)N[C@@H](Cc2c[nH]c3ccccc23)C(=O)N[C@@H](Cc2ccccc2)C(=O)N[C@@H](Cc2ccccc2)C(=O)N[C@@H](CC(N)=O)C(=O)N[C@@H](Cc2ccc(O)cc2)C(=O)N[C@@H](Cc2ccc(O)cc2)C(=O)NCC(=O)O)NC(=O)[C@@H]2CCCN2C1=O (GNWHGTAPDWFFNYYG-OH; lactam N-9) | > 0.52 | 0.12
4 | C[C@@H]1NC(=O)[C@H]([C@@H](C)O)NC(=O)CNC(=O)[C@H](Cc2c[nH]cn2)NC(=O)[C@H](Cc2c[nH]c3ccccc23)NC(=O)[C@H](CC(N)=O)NC(=O)CNC(=O)C[C@@H](C(=O)N[C@@H](Cc2c[nH]c3ccccc23)C(=O)N[C@@H](Cc2ccccc2)C(=O)N[C@@H](Cc2ccccc2)C(=O)N[C@@H](CC(N)=O)C(=O)N[C@@H](Cc2ccc(O)cc2)C(=O)N[C@@H](Cc2ccc(O)cc2)C(=O)N[C@@H](Cc2ccc3ccccc3c2)C(=O)O)NC(=O)[C@@H]2CCCN2C1=O |  | 0.0063
